Data as given in patent US10821117B2, “Estrogen therapy for brain gray matter atrophy and associated disability” (The Regents of the University of California, priority 2014, dated 2020).

How the values were obtained:
[1] = set-up: species or system human; conditions: in vivo
Description: Safety assessments, including clinical, blood laboratory safety testing and assessments of estriol levels, occurred at months 0, 3, 6, 12, 18, and 24. On study blood tests included complete blood count (CBC) with differential and platelets; chemistry panel including sodium, potassium, creatinine, BUN, glucose, total protein, albumin, bilirubin (total), alkaline phosphatase, AST (SGOT), and ALT (SGPT), and lipid profile (HDL, LDL and triglycerides, cholesterol. Gynecologic exams were done at month 0, 6, 18 and at month 24 exit, with uterine ultrasounds at months 6, 18 and at month 24 exit. Mammograms were done in screening and at month 24 exit. Adverse event analysis was based on the percentage of patients who discontinued the study and the percentage of patients who discontinued the study possibly due to adverse events.
The rate of discontinuation was similar between groups (FIG. 1). A total of 60 patients (73.2%) in the Estriol plus GA group and 56 (73.7%) in the Placebo plus GA group completed the 24 month study treatment duration. Of the 158 patients, 15.8% discontinued the study during the first year (7.6% in the Estriol plus GA group and 8.2% in the Placebo plus GA group), and an additional 10.7% discontinued the study during the second year (6.3% and 4.4%, respectively). […] The most common reasons for discontinuation were lost to follow up or patient's decision based on family issues or time constraints.

[2] = test system: multiple sclerosis patients; experiment: Total (whole) brain gray matter volume change on brain MRI, SIENAX segmentation (Example 1); type: in vivo, human; conditions: over 24 months
Description: The effect of estriol treatment as compared to placebo treatment on total (whole) brain gray matter (GM) atrophy was assessed since gray matter atrophy is a surrogate marker for permanent disability in MS. […] The GM volume change from the month 0 scan to the month 12 scan and then the volume change from the month 0 scan to the month 24 scan was calculated.

[3] = test system: relapsing remitting multiple sclerosis patients; experiment: Multiple Sclerosis Functional Composite (MSFC): PASAT3, 9-Hole Peg Test, 25-foot Walk Time; type: in vivo, human
Description: Secondary efficacy end points included the proportion of subjects with a relapse over all 24 months, a change in PASAT cognitive testing, a sustained improvement in PASAT cognitive testing (as defined by an increase of at least 3 points sustained over at least 6 months), a change in EDSS scores from baseline, disability progression (as defined by an increase in EDSS of at least 1.0 point in subjects with a baseline score of 1.0 or higher, or by an increase of at least a 1.5 points in subjects with a baseline score of 0, each sustained for at least 6 months). Tertiary end points included gray matter atrophy on MRI.
Linear mixed effects model was carried out to compare the percent change in whole gray matter and cortical gray matter between treatment groups. For the exploratory endpoints of EDSS, PASAT, and brain volume measures, linear mixed effects model was used to compare treatment groups at 12 and 24 months. Linear mixed effects model was carried out to evaluate the association between PASAT change and percent brain volume change.
Another clinical disability measure with treatment effects was the timed 25-foot walk test. This test measures how many seconds it takes to walk 25 feet, with higher scores indicating worse disability. […] This beneficial effect of estriol treatment on 25-foot walking times is consistent with the beneficial effect of estriol treatment on EDSS scores since the latter is weighted toward being an indicator of ambulation.
There were no significant differences between groups in the Multiple Sclerosis Functional Composite (MSFC), which reflects a composite of scores including the Paced Auditory Serial Addition Test (PASAT) for cognition, the 9 hole peg test and the 25 foot walk test (Table 4). However, an interesting effect of combination treatment was observed on cognitive disability. A perfect PASAT score is 60, with scores lower than 55 serving as a continuous variable for disability. […] After 12 months of treatment, patients receiving Copaxone® plus estriol continued to have high PASAT scores to the end of study at month 24, while participants receiving placebo began to show […] PASAT scores by month 24. […] This represents repair of disability, not merely prevention of worsening. This beneficial effect on PASAT scores at 12 months in the Estriol plus GA group could not be attributed to practice effects of repeated testing since the comparison was with the Placebo plus GA group tested at identical time points.

[4] = first of two lines headed Month 24 (N = 70 / N = 60), positive value indicates worsening
[5] = positive value indicates improvement
[6] = positive value indicates worsening
[7] = second line headed Month 24 (N = 60 / N = 55), positive value indicates worsening

Substance: glatiramer acetate [Placebo + GA]
- Adverse events leading to discontinuation - (%) [1]: (6%)
- Endometrial biopsies performed - (%) [1]: (8) %
- Endometrial thickness >8 mm (ultrasound) - (%) [1]: (36) %
- Fibrocystic disease on clinical exam, number [1]: 4
- Fibrocystic disease on clinical exam, value in parentheses [1]: (5)
- Fibroids (ultrasound) - (%) [1]: (11) %
- Mammogram with malignancy [1]: 0
- Vaginal infection - no. of events [1]: occurred more
- overall rate of GM atrophy [2]: over 1.0 % per year
- PASAT score change at 12 months, within group comparison ([3]; FIG. 7B): no change
- PASAT scores improvement compared with baseline ([3]; by 12 months of treatment): no significant improvement
- 25-foot Walk Time, Change from baseline at Month 24, Mean ± SD [3, 4]: 0.0 ± 0.9
- 25-foot Walk Time, Change from baseline at Month 24, Median [3, 4]: 0.0
- timed 25-foot walk test, walk time ([3]; over the study, higher scores indicate worse disability): significantly increased
- MSFC Score, Change from baseline at Month 12, Mean ± SD [3, 5]: 0.06 ± 0.38
- MSFC Score, Change from baseline at Month 24, Mean ± SD [3, 5]: 0.09 ± 0.43
- PASAT3 score - All Patients, % change from baseline at Month 12, Mean ± SD [3, 5]: 0.8 ± 9.9%
- PASAT3 score - All Patients, % change from baseline at Month 12, Median [3, 5]: 0%
- PASAT3 score - All Patients, % change from baseline at Month 24, Mean ± SD [3, 5]: 2.7 ± 10.3%
- PASAT3 score - All Patients, % change from baseline at Month 24, Median [3, 5]: 0%
- PASAT3 score - All Patients, change from baseline at Month 12, Mean ± SD [3, 5]: 0.1 ± 4.5
- PASAT3 score - All Patients, change from baseline at Month 12, Median [3, 5]: 0
- PASAT3 score - All Patients, change from baseline at Month 24, Mean ± SD [3, 5]: 1.1 ± 4.3
- PASAT3 score - All Patients, change from baseline at Month 24, Median [3, 5]: 0
- PASAT3 score - Patients with baseline score <55, % change from baseline at Month 12, Mean ± SD [3, 5]: 4.0 ± 14.0%
- PASAT3 score - Patients with baseline score <55, % change from baseline at Month 12, Median [3, 5]: 3.8%
- PASAT3 score - Patients with baseline score <55, % change from baseline at Month 24, Mean ± SD [3, 5]: 6.9 ± 14.7%
- PASAT3 score - Patients with baseline score <55, % change from baseline at Month 24, Median [3, 5]: 9.1%
- PASAT3 score - Patients with baseline score <55, change from baseline at Month 12, Mean ± SD [3, 5]: 1.6 ± 6.0
- PASAT3 score - Patients with baseline score <55, change from baseline at Month 12, Median [3, 5]: 1.0
- PASAT3 score - Patients with baseline score <55, change from baseline at Month 24, Mean ± SD [3, 5]: 3.0 ± 5.9
- PASAT3 score - Patients with baseline score <55, change from baseline at Month 24, Median [3, 5]: 4.0
- 9-Hole Peg Test, Change from baseline at Month 12, Mean ± SD [3, 6]: −0.1 ± 1.8
- 9-Hole Peg Test, Change from baseline at Month 12, Median [3, 6]: −0.4
- 9-Hole Peg Test, Change from baseline at Month 24, Mean ± SD [3, 6]: −0.4 ± 1.5
- 9-Hole Peg Test, Change from baseline at Month 24, Median [3, 6]: −0.5
- 25-foot Walk Time, Change from baseline at Month 24, Mean ± SD [3, 7]: 0.1 ± 1.1
- 25-foot Walk Time, Change from baseline at Month 24, Median [3, 7]: 0.1
